Assay [1] has as its target T1, 5-lipoxygenase (Cavia porcellus, UniProt A0A286X958).
T1 construct: endogenous in cells; host or cells: guinea pig (Hartley strain) casein-elicited peritoneal exudate cells, intact cell suspension
T1 sequence (A0A286X958 1-674): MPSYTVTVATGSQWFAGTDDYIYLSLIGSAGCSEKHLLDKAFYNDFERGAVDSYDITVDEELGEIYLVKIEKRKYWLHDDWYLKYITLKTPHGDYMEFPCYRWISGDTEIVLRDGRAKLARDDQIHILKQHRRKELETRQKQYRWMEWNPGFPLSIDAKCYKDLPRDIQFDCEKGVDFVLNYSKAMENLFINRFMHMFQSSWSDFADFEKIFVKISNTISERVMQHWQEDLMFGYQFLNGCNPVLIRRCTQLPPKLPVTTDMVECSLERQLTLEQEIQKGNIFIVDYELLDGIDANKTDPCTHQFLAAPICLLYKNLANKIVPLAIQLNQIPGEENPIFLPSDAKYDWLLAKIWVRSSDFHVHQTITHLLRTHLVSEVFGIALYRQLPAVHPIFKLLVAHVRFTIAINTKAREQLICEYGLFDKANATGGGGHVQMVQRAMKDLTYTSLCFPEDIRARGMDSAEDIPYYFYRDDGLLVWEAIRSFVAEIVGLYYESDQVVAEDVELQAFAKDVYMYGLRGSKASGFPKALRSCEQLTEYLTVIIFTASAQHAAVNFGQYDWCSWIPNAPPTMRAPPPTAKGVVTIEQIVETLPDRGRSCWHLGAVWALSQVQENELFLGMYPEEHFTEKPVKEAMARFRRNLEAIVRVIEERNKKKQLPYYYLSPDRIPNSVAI
In words: 5-Lipoxygenase inhibitory activity (conversion of 14C-arachidonic acid to 5-HETE) in guinea pig peritoneal exudate cells. The following applies: read-out: inhibition ratio (%) of 5-lipoxygenase activity; for inhibition at 0.3 µM: concentration 3 × 10^-7 M; for inhibition at 1 µM: concentration 10^-6 M; for inhibition at 0.1 µM: concentration 10^-7 M. The format is cell-based, guinea pig (Hartley strain). The method in brief:
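Casein-elicited guinea pig peritoneal exudate cells (2.5×10^7 cells/ml, 1 mM CaCl2, 5.5 mM glucose) pretreated with 10^-5 M indomethacin, then compound 2 min at 30° C. Reaction started with 10 μm A23187 and 10 μm 14C-arachidonic acid, stopped after 3 min; metabolites separated by TLC and counted by liquid scintillation.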

The test system of assay [2] is histamine release from lung fragments. Briefly: Inhibition of histamine release from sensitized guinea pig lung fragments. Type of assay: cell-based, guinea pig (Hartley strain). Conditions: Cavia porcellus, read-out: Inhibition ratio (%) Histamine; for inhibition at 3 µM: Table 2, dose 3 μM; for inhibition at 30 µM: Table 2, dose 30 μM. The protocol: Inhibitory activities on the release of SRS-A and histamine of the present compounds were determined.
A male guinea pig (Hartley strain) (body weight: about 300 g) was sensitized by a method according to P. Anderson: "Int. Archs. Allergey appln. Immunol., Vol. 64, pages 249-258 (1981). Thus, 30 mg/kg of cyclophosphamide was intraperitoneally administered to the guinea pig, and 2 days after 1 microgram of ovalbumin (manufactured by Sigma Chemical Co., St. Louis, Mo. U. S. A.) together with 10 mg of aluminium hydroxide gel were intraperitoneally administered so as to have the animal sesitized.
50 Days after the sesitization, the animal was killed by exsanguination, and the lung was isolated from the animal and was perfused with 20 ml of Tyrode's solution, then immersed in an ice-cooled Tyrode's solution. The parenchyma of the lung was cut by using McIlwain-type tissue chopper to make it into fragments of lung having 2 mm square and the fragments were washed with Tyrode's solution. 400 Milligrams of sectiles of lung were suspended in 3.6 ml of Tyrode's solution, and this suspension was preincubated at 37° C. for 5 minutes, then 4 microliters of dimethyl sulfoxide solution of the test compound, in the case of control 4 microliters of dimethyl sulfoxide alone was added to the suspension. 5 Minutes after, 0.4 ml of 100 micrograms/ml of ovalbumin solution added so as to release SRS-A for 10 minutes. The suspension was ice-cooled and filtered through gauze, the filtrate was centrifuged at 2,000 rpm for 10 minutes and the supernatant was collected. The supernatant was stored in freezed state at -80° C. until bio-assay was conducted.
Amounts of SRS-A and histamine contained in the supernatant were determined by bio-assay using ileum of guinea pig.
A piece of the ileum (2-3 cm of length) positioned from 15-25 cm from the opening portion of ileocecum was isolated from a male guinea pig (Hartley strain) (body weight: 400-600 g) which was fasted for 24 hours. The piece of ileum was hanged vertically in a Magnus tube which was filled with 10 ml of Tyrode's solution containing 10^-7 M of atropine sulfate under air stream conditions. The isotonic contraction of the piece of the ileum was measured at 0.5 g of load by using an isotonic transducer "TD-112S" (manufactured by Nihon Koden Co., Ltd.). The measurements were carried out after the reaction to histamine of the piece of ileum was kept constant. Bioassay of histamine was measured by using the value of contraction shown in 30 seconds after the addition of the supernatant. Bioassay of on SRS-A was measured by using the value of contraction shown at 2 minutes after the addition of the supernatant in the presence of 10^-6 M of pyrilamine (manufactured by Sigma Chemical Co.), and compared with the standard curve of crude SRS-A released from the fragments of the lung.

Regarding `COC1=CC(=O)C(OC)=C(CCCCCC2=C(OC)C(=O)C=C(OC)C2=O)C1=O` [Test Compound No. 9, 2,2'-Pentamethylenebis(3,6-dimethoxy-1,4-benzoquinone)], in assay [1], the inhibition at 0.3 µM came out at 55%, the inhibition at 1 µM was determined as 74% and the inhibition at 0.1 µM stood at 38%. In assay [2], the inhibition at 3 µM is -15% and the inhibition at 30 µM was 4.1%.

As to `COC1=CC(=O)C(OC)=C(CCCCCCCCCC2=C(OC)C(=O)C=C(OC)C2=O)C1=O` [Test Compound No. 13, 2,2'-Nonamethylenebis(3,6-dimethoxy-1,4-benzoquinone)], in assay [1], the inhibition at 0.3 µM came out at 72%, the inhibition at 1 µM worked out at 91% and the inhibition at 0.1 µM amounted to 43%. Moreover, in assay [2], the inhibition at 3 µM was -2.7% and the inhibition at 30 µM is -14.9%.

For `COC1=CC(=O)C(OC)=C(CCCCCC#CCCCCCC2=C(OC)C(=O)C=C(OC)C2=O)C1=O` [Test Compound No. 16, 2,2'-(6-Dodecynylene)bis(3,6-dimethoxy-1,4-benzoquinone)], in assay [1], the inhibition at 0.3 µM came out at 84%, the inhibition at 1 µM was found to be 87% and the inhibition at 0.1 µM worked out at 61%.

The values are drawn from US5220042A, “1,4-benzoquinone derivatives and benzene derivatives, and process for preparing the same” (priority 1984, dated 1993).
